These results are taken from US9139809B2, “Bacterial vaccines with cell wall-associated ceramide-like glycolipids and uses thereof” (priority 2009, dated 2015).

Each structure is given as a SMILES string.

For one test, the system named is M. tuberculosis H37Rv. As to conditions: in vivo.
Another test deals with tumor and malaria. As to conditions: mice; cited from earlier work.
The next test concerns serum cytokines. The following applies: mice, cited from earlier work.
In the next test the test system is M. tuberculosis. As to conditions: αGalCer as a therapeutic; cited from earlier work.
For the next test, the system named is malarial parasite. The following applies: mice, αGalCer as a therapeutic; cited from earlier work.

As to `CCCCCCCCCCCCCCCCCCCCCCCCCC(=O)N[C@@H](CCC1OC(CO)C(O)C(O)C1O)[C@H](O)[C@H](O)CCCCCCCCCCCCCC` (stereo partly drawn) [α-C-GalCer, (2S,3S,4R)-1-CH2-(α-galactopyranosyl)-N-hexacosanoyl-2-amino-1,3,4-octadecanetriol], the “improvement of the protective efficacy of BCG, comparison of the two glycolipids” value in the test with M. tuberculosis H37Rv is “superior to αGalCer”. In addition, the “anti-tumor and anti-malarial activity compared with αGalCer” value in the test with tumor and malaria is “superior anti-tumor and anti-malarial activity as compared to αGalCer”. Besides, in the test with serum cytokines (compared with αGalCer), the “levels of Th1 cytokines IL-12 and IFNγ” value is recorded as “induces higher levels”.
As to `CCCCCCCCCCCCCCCCCCCCCCCCCC(=O)N[C@@H](CO[C@H]1O[C@H](CO)[C@H](O)[C@H](O)[C@H]1O)[C@H](O)[C@H](O)CCCCCCCCCCCCCC` [αGalCer, (2S,3S,4R)-1-O-(α-D-galactopyranosyl)-N-hexacosanoyl-2-amino-1,3,4-octadecanetriol], in the test with M. tuberculosis, the “survival of M. tuberculosis infected mice” value is on record as “prolong the survival”. Besides, the malarial parasite load result with malarial parasite is given as “reduce malarial parasite load”. In addition, the “serum cytokines after a single injection (IFNγ, IL-12 and IL-4)” value in the test on serum cytokines (single injection) is listed as “induces a cytokine storm in the serum”.
